This is an account of results in PubChem BioAssay (NCI).

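Compound exposure: 48 hours, 5 concentrations, 96-well plates. Here, GI50 denotes the concentration required for 50% inhibition of growth. TGI is the concentration that stops growth completely.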

Test systems include SF-295 CNS; MALME-3M melanoma; HCT-15 colon; RXF 393 renal; K-562 leukemia; OVCAR-5 ovarian; UO-31 renal; KM12 colon; NCI-H226 lung; HS 578T breast.
Holding throughout (test): NCI tumour cell line growth inhibition, 48 h

On to `CC(N)Cc1ccc(Cl)cc1` (stereo unspecified), for which the TGI in the assay with SF-295 CNS, in the assay on MALME-3M melanoma, in the assay on HCT-15 colon, with RXF 393 renal, with K-562 leukemia and in the assay on OVCAR-5 ovarian was more than 100 µM throughout. The TGI in the assay on UO-31 renal, in the assay on KM12 colon and in the assay with NCI-H226 lung was more than 100 µM throughout.
Turning to `O=C(Nc1cc(Cl)ccc1Cl)c1cc2cccc(Br)c2oc1=O`, the TGI with SF-295 CNS, in the assay with MALME-3M melanoma, with HCT-15 colon, in the assay with RXF 393 renal, with K-562 leukemia and in the assay with UO-31 renal was more than 100 µM each time. The TGI in the assay on KM12 colon and in the assay on NCI-H226 lung was more than 100 µM throughout.
On to `COc1ccc2c3c(c(C(=O)O)oc13)CCC2`, for which the TGI in the assay with SF-295 CNS, with MALME-3M melanoma, in the assay on HCT-15 colon, with RXF 393 renal, with K-562 leukemia and with OVCAR-5 ovarian was more than 100 µM throughout. Besides, the values for the TGI with UO-31 renal, in the assay on KM12 colon and in the assay on NCI-H226 lung were more than 100 µM, more than 100 µM and 83 µM, respectively.
Regarding `O=c1cc(-c2ccccc2)oc2ccc(OC/C(=N/O)c3ccc(F)cc3)cc12`, the GI50 in the assay on SF-295 CNS was 1.79 µM; in the assay on HCT-15 colon it was 2.99 µM; in the assay with RXF 393 renal, 9.99 µM; in the assay with K-562 leukemia, 2.61 µM; in the assay with OVCAR-5 ovarian, 16.4 µM; in the assay with UO-31 renal, 10.8 µM. For the same compound, the GI50 with KM12 colon is 1.6 µM; in the assay on NCI-H226 lung, 13.6 µM. The TGI in the assay with SF-295 CNS was 8.12 µM; in the assay on HCT-15 colon, 14.5 µM; in the assay on RXF 393 renal, 26.1 µM; in the assay with K-562 leukemia it was more than 50 µM; in the assay on OVCAR-5 ovarian it was more than 50 µM; in the assay with UO-31 renal it was more than 50 µM. In addition, the TGI was 6.01 µM in the assay on KM12 colon and more than 50 µM in the assay with NCI-H226 lung.
For `Cc1cc2c(c3nocc13)C(=O)c1ccccc1C2=O`, the TGI with SF-295 CNS, in the assay on MALME-3M melanoma, in the assay with HCT-15 colon, in the assay with RXF 393 renal, in the assay on K-562 leukemia and in the assay on OVCAR-5 ovarian was more than 100 µM throughout. Moreover, the TGI in the assay on UO-31 renal and in the assay with KM12 colon was more than 100 µM throughout.
For the compound `Cc1ccc2[nH]c3c(c2c1)N=c1ccccc1=NO3`, the GI50 was 23.8 µM in the assay with SF-295 CNS; 20 µM with MALME-3M melanoma; more than 100 µM in the assay with HCT-15 colon; 47.6 µM in the assay on RXF 393 renal; more than 100 µM in the assay on K-562 leukemia; more than 100 µM in the assay on OVCAR-5 ovarian. The GI50 in the assay with UO-31 renal was 42.2 µM; in the assay with KM12 colon, 34.8 µM; in the assay with NCI-H226 lung it was 70 µM. In addition, the TGI in the assay with SF-295 CNS is 84.9 µM; with MALME-3M melanoma it was 54.1 µM; with HCT-15 colon, more than 100 µM; with RXF 393 renal, more than 100 µM; in the assay on K-562 leukemia it was more than 100 µM; in the assay on OVCAR-5 ovarian it was more than 100 µM. Also, the TGI in the assay with UO-31 renal, in the assay on KM12 colon and in the assay with NCI-H226 lung was more than 100 µM in each case.
With `CN(C)CCNC(=O)c1cccc2nc3ccc4cccnc4c3nc12`, the TGI was determined as 3.94 µM in the assay with SF-295 CNS; 2.33 µM with HCT-15 colon; 1.3 µM in the assay with RXF 393 renal; 13.4 µM in the assay with K-562 leukemia; 2.67 µM in the assay on OVCAR-5 ovarian; 2.4 µM in the assay with UO-31 renal. In addition, the TGI is 3.54 µM with KM12 colon and 1.83 µM in the assay with NCI-H226 lung.
`COC1=CC(=O)C(Br)=CC1=O`: the TGI in the assay with MALME-3M melanoma was found to be 35.6 µM; in the assay with HCT-15 colon it was 47 µM; in the assay on RXF 393 renal, 32.3 µM; in the assay with K-562 leukemia, 9.1 µM; with UO-31 renal, 31.7 µM.
Take `COc1cccc(OC(=O)c2ccc(C(F)(F)F)nc2Nc2c(C)cccc2Cl)c1`: the GI50 is 17.1 µM in the assay with SF-295 CNS; 54.1 µM in the assay on HCT-15 colon; 25 µM in the assay with RXF 393 renal; 36.5 µM with K-562 leukemia; 3.13 µM in the assay with OVCAR-5 ovarian; 15.1 µM with UO-31 renal. Further, the results for the GI50 with HS 578T breast and in the assay on NCI-H226 lung were 24.7 µM and 47.7 µM, respectively. The TGI with SF-295 CNS is 48.5 µM; with HCT-15 colon, more than 100 µM; in the assay on RXF 393 renal it was 55.7 µM; in the assay with K-562 leukemia, more than 100 µM; in the assay with OVCAR-5 ovarian it was 21.2 µM; in the assay with UO-31 renal it was 32 µM. For the same compound, the TGI with HS 578T breast is 94.6 µM; in the assay on NCI-H226 lung, more than 100 µM.
Regarding `O=C1NC(=O)C(=Cc2c3ccccc3cc3ccccc23)C(=O)N1`, the TGI with HCT-15 colon, in the assay on RXF 393 renal, in the assay on K-562 leukemia and in the assay with UO-31 renal was more than 100 µM each time.
Consider `CC(C)=O.O=C([O-])C(F)(F)F.O=C([O-])C(F)(F)F.O=C([O-])C(F)(F)F.O=C([O-])C(F)(F)F.[Rh+2].[Rh+2]`, for which the GI50 is more than 100 µM with SF-295 CNS; more than 100 µM in the assay on HCT-15 colon; more than 100 µM with RXF 393 renal; 31.8 µM in the assay with K-562 leukemia; more than 100 µM in the assay on OVCAR-5 ovarian; more than 100 µM with UO-31 renal. Further, the GI50 in the assay on KM12 colon and in the assay with NCI-H226 lung was more than 100 µM each time. Besides, the TGI in the assay with SF-295 CNS, with HCT-15 colon, in the assay on RXF 393 renal, in the assay with K-562 leukemia, in the assay on OVCAR-5 ovarian and with UO-31 renal was more than 100 µM throughout. Moreover, the TGI in the assay on KM12 colon and in the assay with NCI-H226 lung was more than 100 µM throughout.
In the case of `C#CCN(N=O)C(=O)NCCCCC(NC(=O)OCc1ccccc1)C(=O)OCc1ccccc1` (stereo unspecified), the TGI in the assay with SF-295 CNS is more than 100 µM; in the assay on MALME-3M melanoma, 71.6 µM; in the assay with HCT-15 colon it was more than 100 µM; in the assay on RXF 393 renal it was 81.7 µM; with K-562 leukemia, 56.9 µM; with OVCAR-5 ovarian, more than 100 µM. Moreover, the TGI in the assay with UO-31 renal, with KM12 colon and with NCI-H226 lung was more than 100 µM in each case.
